{"source": "patent US20240246934A1", "about": "“QUINAZOLINE-BASED COMPOUND, COMPOSITION, AND APPLICATION OF QUINAZOLINE-BASED COMPOUND” (BEIJING SCITECH-MQ PHARMACEUTICALS LIMITED, priority 2021, published 2024)", "key": {"[1]": {"biological_target": "Ba/F3 HER2 A775_G776insYVMA cells (Homo sapiens, UniProt P04626, DUP772-775, cells depend on it)", "sequence (P04626 with tags, fused parts or gaps DUP772-775)": "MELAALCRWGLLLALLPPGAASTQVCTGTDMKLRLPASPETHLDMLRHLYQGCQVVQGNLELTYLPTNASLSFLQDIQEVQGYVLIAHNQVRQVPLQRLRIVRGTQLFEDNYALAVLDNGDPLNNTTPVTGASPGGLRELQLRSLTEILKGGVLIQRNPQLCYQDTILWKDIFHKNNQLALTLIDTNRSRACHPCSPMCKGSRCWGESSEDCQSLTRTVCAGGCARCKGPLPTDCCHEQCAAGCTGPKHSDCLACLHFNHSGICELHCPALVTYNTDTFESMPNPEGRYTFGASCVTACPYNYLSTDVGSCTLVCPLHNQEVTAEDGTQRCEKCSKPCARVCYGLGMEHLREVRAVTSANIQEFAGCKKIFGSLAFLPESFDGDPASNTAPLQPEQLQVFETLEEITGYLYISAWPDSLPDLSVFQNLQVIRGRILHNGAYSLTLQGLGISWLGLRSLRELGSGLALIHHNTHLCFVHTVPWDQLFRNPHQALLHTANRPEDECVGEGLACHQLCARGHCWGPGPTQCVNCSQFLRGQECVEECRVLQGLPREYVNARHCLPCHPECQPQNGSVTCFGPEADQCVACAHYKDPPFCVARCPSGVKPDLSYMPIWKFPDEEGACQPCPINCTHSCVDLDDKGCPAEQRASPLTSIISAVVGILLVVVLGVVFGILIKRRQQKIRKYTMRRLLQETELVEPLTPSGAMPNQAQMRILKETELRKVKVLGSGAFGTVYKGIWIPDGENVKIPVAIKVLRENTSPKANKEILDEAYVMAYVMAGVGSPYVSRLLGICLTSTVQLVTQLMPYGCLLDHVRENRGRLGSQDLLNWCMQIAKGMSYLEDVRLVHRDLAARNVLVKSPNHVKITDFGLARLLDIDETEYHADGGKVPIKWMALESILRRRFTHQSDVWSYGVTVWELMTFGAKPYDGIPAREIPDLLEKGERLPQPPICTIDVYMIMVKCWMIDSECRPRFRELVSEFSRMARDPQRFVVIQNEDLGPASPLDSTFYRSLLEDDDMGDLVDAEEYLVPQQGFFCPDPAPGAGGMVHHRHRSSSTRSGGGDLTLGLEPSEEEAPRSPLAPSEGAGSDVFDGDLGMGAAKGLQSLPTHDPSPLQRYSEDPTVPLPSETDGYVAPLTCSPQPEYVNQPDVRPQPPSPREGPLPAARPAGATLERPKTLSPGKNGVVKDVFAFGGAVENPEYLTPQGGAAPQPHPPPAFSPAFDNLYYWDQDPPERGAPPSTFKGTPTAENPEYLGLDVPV", "assay": "Inhibition of cell proliferation, CTG method, Ba/F3 HER2 A775_G776insYVMA", "format": "cell-based", "details": "72 hours, read-out: Ba/F3 HER2 A775-G776insYVMA IC50", "text": "The present application examined the in vitro anti-proliferative activity of the compounds of the present disclosure against in vitro cultured BT474, NCI-N87, Ba/F3-EGFR-VIII and Ba/F3 HER2 A775_G776insYVMA and Ba/F3 EGFR D770_N771insSVD cell lines by CTG method.\nCell lines: BT474 (from the cell bank of Chinese Academy of Sciences), NCI-N87 (from ATCC), Ba/F3-EGFR-VIII, Ba/F3 HER2 A775_G776insYVMA and Ba/F3 EGFR D770_N771insSVD (all from KYinno Biotechnology (Beijing) Co., Ltd.); all of the above cells were cultured with RPMI1640 medium containing 10% fetal bovine serum, 100 U/mL penicillin, and 100 μg/mL streptomycin in the culture process.\n1. The assay compound was dissolved with DMSO to form a stock solution and a gradient dilution was performed, followed by dilution with the corresponding medium to obtain a solution with 5-fold working concentration.\n2. Cells in logarithmic growth phase were adjusted to specific cell densities by dilution with culture medium, and 80 μL of cell suspension was added to a 96-well plate, such that plating densities of cells of BT474, NCI-N87, Ba/F3-EGFR-VIII, Ba/F3 HER2 A775_G776insYVMA and Ba/F3 EGFR D770_N771insSVD were all 3000 cells/well. The cells of Ba/F3-EGFR-VIII, Ba/F3 HER2 A775_G776insYVMA and Ba/F3 EGFR D770_N771insSVD were used directly in the next step (treatment with compound), whereas the BT474 and NCI-N87 needed to be cultured overnight in a 37° C., 5% carbon dioxide gas incubator to adhere to the wall, and then treated with compounds.\n3. […] The highest concentration of the assayed compound was 10 μM, 4-fold serial dilution, a total of 9 concentrations, and duplicate wells. A control group without compound was also set up.\n4. The cells were cultured for another 72 hours, and then cell viability was detected by CTG assay kit. Signal values were read with a multifunctional plate reader (Perkin Elmer). GraphPad Prism software was used to create a dose-response curve and IC50 was calculated."}, "[2]": {"biological_target": "EGFR^WT kinase (Homo sapiens, UniProt P00533)", "sequence (P00533 25-1210)": "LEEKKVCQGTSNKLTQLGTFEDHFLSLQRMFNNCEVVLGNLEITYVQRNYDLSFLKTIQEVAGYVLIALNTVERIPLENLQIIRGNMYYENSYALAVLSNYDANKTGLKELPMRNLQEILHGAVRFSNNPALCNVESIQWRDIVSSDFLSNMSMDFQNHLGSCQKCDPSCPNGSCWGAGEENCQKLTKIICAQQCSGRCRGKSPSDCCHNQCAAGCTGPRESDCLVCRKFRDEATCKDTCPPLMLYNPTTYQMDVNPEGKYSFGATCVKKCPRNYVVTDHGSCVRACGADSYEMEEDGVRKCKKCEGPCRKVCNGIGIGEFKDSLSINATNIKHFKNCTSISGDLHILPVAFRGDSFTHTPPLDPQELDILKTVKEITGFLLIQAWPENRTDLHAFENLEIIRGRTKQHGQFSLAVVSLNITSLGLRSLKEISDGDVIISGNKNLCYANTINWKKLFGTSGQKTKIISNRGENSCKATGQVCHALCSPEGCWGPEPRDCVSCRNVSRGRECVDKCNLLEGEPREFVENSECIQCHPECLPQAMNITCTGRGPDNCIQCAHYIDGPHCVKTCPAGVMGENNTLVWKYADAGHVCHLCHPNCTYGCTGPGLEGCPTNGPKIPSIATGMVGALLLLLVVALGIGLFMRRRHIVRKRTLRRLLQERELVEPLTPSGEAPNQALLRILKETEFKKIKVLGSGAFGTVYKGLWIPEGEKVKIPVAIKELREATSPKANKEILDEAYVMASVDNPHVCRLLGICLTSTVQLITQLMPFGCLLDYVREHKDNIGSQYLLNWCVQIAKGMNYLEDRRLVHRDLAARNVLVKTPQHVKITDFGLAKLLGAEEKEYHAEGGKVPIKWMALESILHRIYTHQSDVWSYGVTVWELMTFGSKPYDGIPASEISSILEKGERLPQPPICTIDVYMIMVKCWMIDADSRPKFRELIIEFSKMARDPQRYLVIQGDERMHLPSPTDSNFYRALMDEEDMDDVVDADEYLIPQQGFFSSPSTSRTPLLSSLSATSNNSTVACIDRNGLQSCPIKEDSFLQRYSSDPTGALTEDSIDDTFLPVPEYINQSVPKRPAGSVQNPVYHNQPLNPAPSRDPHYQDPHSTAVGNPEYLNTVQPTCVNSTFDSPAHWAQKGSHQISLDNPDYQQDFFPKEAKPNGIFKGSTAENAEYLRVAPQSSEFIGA", "assay": "EGFR^WT kinase assay (ULight/PT66 TR-FRET)", "format": "biochemical", "method": "(§1) Preparation of compound solution: The assay compound was dissolved in DMSO to form a 10 mM stock solution. Prior to use, the compound was diluted to 0.25 mM in DMSO (100 times the final concentration of the diluent) and then subjected to a 3-fold concentration gradient dilution to obtain a total of 11 concentrations. The solution was diluted with buffer to a diluent with 4× the final concentration when the compound was added.\n(§2) EGFR^WT kinase assay: buffer was prepared, and 3.48 nM 4×EGFR kinase solution, 600 μM 4×ATP solution, and 400 nM 4×ULight™-labeled JAK-1 (Try1023) Peptide substrate solution were prepared using the buffer. After the preparation was completed, the enzyme was mixed with different concentrations of compounds pre-prepared by dilution, and the mixture was left to stand at room temperature for 5 min. Each concentration was performed in duplicate. The corresponding substrate and ATP were added and the mixture was reacted at room temperature for 120 minutes (with negative and positive controls). After completion of the reaction, PT66 detection antibody was added. The mixture was incubated at room temperature for 60 minutes, and then detected by Envision.\n(§3) Compound concentrations and corresponding inhibition rates were input into GraphPad Prism for processing to calculate IC50 values."}, "[3]": {"biological_target": "T1, HER2 kinase (Homo sapiens, UniProt P04626)", "T1 construct": "purchased Carna Biosciences 08-016", "T1 sequence (P04626 23-1255)": "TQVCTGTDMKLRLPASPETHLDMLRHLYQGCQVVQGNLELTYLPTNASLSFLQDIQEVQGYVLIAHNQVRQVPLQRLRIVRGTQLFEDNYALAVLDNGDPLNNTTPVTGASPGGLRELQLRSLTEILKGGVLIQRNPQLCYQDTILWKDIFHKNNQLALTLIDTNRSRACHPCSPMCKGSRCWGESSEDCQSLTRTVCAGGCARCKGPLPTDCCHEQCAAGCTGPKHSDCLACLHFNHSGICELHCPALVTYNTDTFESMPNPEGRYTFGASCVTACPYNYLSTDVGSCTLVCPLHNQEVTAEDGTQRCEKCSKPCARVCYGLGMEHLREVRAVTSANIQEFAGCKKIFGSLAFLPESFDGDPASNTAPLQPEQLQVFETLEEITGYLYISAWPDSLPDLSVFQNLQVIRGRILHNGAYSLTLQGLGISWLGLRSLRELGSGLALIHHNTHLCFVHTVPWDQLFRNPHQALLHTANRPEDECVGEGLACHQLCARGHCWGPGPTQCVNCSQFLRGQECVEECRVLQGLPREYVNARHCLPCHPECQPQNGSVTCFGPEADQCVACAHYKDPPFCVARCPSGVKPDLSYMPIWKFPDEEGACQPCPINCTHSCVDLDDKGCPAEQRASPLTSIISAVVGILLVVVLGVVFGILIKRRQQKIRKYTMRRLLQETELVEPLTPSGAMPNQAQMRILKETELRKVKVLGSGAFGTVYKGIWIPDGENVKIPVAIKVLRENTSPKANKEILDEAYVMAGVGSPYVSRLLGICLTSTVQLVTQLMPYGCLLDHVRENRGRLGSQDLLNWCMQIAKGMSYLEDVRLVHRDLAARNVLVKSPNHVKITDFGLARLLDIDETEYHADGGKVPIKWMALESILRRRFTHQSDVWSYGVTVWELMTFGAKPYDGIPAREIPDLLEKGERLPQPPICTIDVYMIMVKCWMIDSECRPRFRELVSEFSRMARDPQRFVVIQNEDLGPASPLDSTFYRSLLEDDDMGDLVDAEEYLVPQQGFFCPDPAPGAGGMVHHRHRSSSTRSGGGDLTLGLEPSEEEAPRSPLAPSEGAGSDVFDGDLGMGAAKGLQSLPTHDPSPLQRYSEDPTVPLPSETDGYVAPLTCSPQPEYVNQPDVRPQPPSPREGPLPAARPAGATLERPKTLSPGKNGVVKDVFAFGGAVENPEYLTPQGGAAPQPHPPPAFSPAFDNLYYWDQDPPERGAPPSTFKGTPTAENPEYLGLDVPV", "assay": "HER2 kinase assay (ULight/PT66 TR-FRET)", "format": "biochemical", "method": "as §1\nas §2, with “HER2” for “EGFR^WT”, “40” for “3.48”, “4×Her2” for “4×EGFR”, “40” for “600”, “Ploy GT” for “JAK-1 (Try1023)”\nas §3"}}}
{"molecule": "COCCN1CCC[C@@H]1/C=C/C(=O)Nc1ccc2ncnc(Nc3ccc(OCc4ccccn4)c(Cl)c3)c2c1OC", "note": "[Example 25, (R,E)-N-(4-((3-chloro-4-(pyridin-2-ylmethoxy)phenyl)amino)-5-methoxyquinazolin-6-yl)-3-(1-(2-methoxyethyl)pyrrolidin-2-yl)acrylamide]", "values": [{"measurement": "GI50", "setting": "[1]", "value": "1 to 5", "unit": "nM"}, {"measurement": "IC50", "setting": "[2]", "value": "100 to 1000", "unit": "nM"}, {"measurement": "IC50", "setting": "[3]", "value": "< 10", "unit": "nM"}]}
{"molecule": "COc1cccc(COc2ccc(Nc3ncnc4ccc(NC(=O)/C=C/[C@H]5CCCN5C)c(OC)c34)cc2Cl)n1", "note": "[Example 27, (R,E)-N-(4-((3-chloro-4-((6-methoxypyridin-2-yl)methoxy)phenyl)amino)-5-methoxyquinazolin-6-yl)-3-(1-methylpyrrolidin-2-yl)acrylamide]", "values": [{"measurement": "GI50", "setting": "[1]", "value": "1 to 5", "unit": "nM"}, {"measurement": "IC50", "setting": "[2]", "value": "10 to 100", "unit": "nM"}, {"measurement": "IC50", "setting": "[3]", "value": "< 10", "unit": "nM"}]}
{"molecule": "COc1c(NC(=O)/C=C/[C@H]2CCCN2C)ccc2ncnc(Nc3ccc(OCc4ccccn4)c(F)c3)c12", "note": "[Example 30, (R,E)-N-(4-((3-fluoro-4-(pyridin-2-ylmethoxy)phenyl)amino)-5-methoxyquinazolin-6-yl)-3-(1-methylpyrrolidin-2-yl)acrylamide]", "values": [{"measurement": "GI50", "setting": "[1]", "value": "1 to 5", "unit": "nM"}, {"measurement": "IC50", "setting": "[2]", "value": "< 10", "unit": "nM"}, {"measurement": "IC50", "setting": "[3]", "value": "< 10", "unit": "nM"}]}
{"molecule": "CN1CCC[C@@H]1/C=C/C(=O)Nc1ccc2ncnc(Nc3ccc(Oc4ccccc4)cc3)c2c1OCCO", "note": "[Example 31, (R,E)-N-(5-(2-hydroxyethoxy)-4-((4-phenyloxyphenyl)amino)quinazolin-6-yl)-3-(1-methylpyrrolidin-2-yl)acrylamide]", "values": [{"measurement": "GI50", "setting": "[1]", "value": "1 to 5", "unit": "nM"}, {"measurement": "IC50", "setting": "[2]", "value": "< 10", "unit": "nM"}, {"measurement": "IC50", "setting": "[3]", "value": "< 10", "unit": "nM"}]}
{"molecule": "COCCCNc1c(NC(=O)/C=C/[C@H]2CCCN2C)ccc2ncnc(Nc3ccc(OCc4ccccn4)c(Cl)c3)c12", "note": "[Example 32, (R,E)-N-(4-((3-chloro-4-(pyridin-2-ylmethoxy)phenyl)amino)-5-((3-methoxypropyl)amino)quinazolin-6-yl)-3-(1-methylpyrrolidin-2-yl)acrylamide]", "values": [{"measurement": "GI50", "setting": "[1]", "value": "1 to 5", "unit": "nM"}, {"measurement": "IC50", "setting": "[2]", "value": "100 to 1000", "unit": "nM"}, {"measurement": "IC50", "setting": "[3]", "value": "< 10", "unit": "nM"}]}
{"molecule": "[2H]C([2H])([2H])Oc1c(NC(=O)/C=C/[C@H]2CCCN2CC)ccc2ncnc(Nc3ccc(OCc4ccccn4)c(Cl)c3)c12", "note": "[Example 34, (R,E)-N-(4-((3-chloro-4-(pyridin-2-ylmethoxy)phenyl)amino)-5-(methoxy-d3)quinazolin-6-yl)-3-(1-ethylpyrrolidin-2-yl)acrylamide]", "values": [{"measurement": "GI50", "setting": "[1]", "value": "1 to 5", "unit": "nM"}, {"measurement": "IC50", "setting": "[2]", "value": "< 10", "unit": "nM"}, {"measurement": "IC50", "setting": "[3]", "value": "< 10", "unit": "nM"}]}
{"molecule": "[2H]C([2H])([2H])Oc1c(NC(=O)/C=C/[C@H]2CCCN2C(C)C)ccc2ncnc(Nc3ccc(OCc4ccccn4)c(Cl)c3)c12", "note": "[Example 35, (R,E)-N-(4-((3-chloro-4-(pyridin-2-ylmethoxy)phenyl)amino)-5-(methoxy-d3)quinazolin-6-yl)-3-(1-isopropylpyrrolidin-2-yl)acrylamide]", "values": [{"measurement": "GI50", "setting": "[1]", "value": "1 to 5", "unit": "nM"}, {"measurement": "IC50", "setting": "[2]", "value": "10 to 100", "unit": "nM"}, {"measurement": "IC50", "setting": "[3]", "value": "< 10", "unit": "nM"}]}
{"molecule": "[2H]C([2H])([2H])Oc1c(NC(=O)/C=C/CN(C)C)ccc2ncnc(Nc3ccc(OCc4ccccn4)c(Cl)c3)c12", "note": "[Example 36, (E)-N-(4-((3-chloro-4-(pyridin-2-ylmethoxy)phenyl)amino)-5-(methoxy-d3)quinazolin-6-yl)-4-(dimethylamino)but-2-enamide]", "values": [{"measurement": "GI50", "setting": "[1]", "value": "1 to 5", "unit": "nM"}, {"measurement": "IC50", "setting": "[2]", "value": "< 10", "unit": "nM"}, {"measurement": "IC50", "setting": "[3]", "value": "< 10", "unit": "nM"}]}
{"molecule": "CN1CCC[C@@H]1/C=C/C(=O)Nc1ccc2ncnc(Nc3ccc(OCc4ccccn4)c(Cl)c3)c2c1OC1CC1", "note": "[Example 37, (R,E)-N-(4-((3-chloro-4-(pyridin-2-ylmethoxy)phenyl)amino)-5-cyclopropoxyquinazolin-6-yl)-3-(1-methylpyrrolidin-2-yl)acrylamide]", "values": [{"measurement": "GI50", "setting": "[1]", "value": "1 to 5", "unit": "nM"}, {"measurement": "IC50", "setting": "[2]", "value": "10 to 100", "unit": "nM"}, {"measurement": "IC50", "setting": "[3]", "value": "< 10", "unit": "nM"}]}
{"molecule": "CN1CCC[C@@H]1/C=C/C(=O)Nc1ccc2ncnc(Nc3ccc(OCc4ccccn4)c(Cl)c3)c2c1OCC1CC1", "note": "[Example 38, (R,E)-N-(4-((3-chloro-4-(pyridin-2-ylmethoxy)phenyl)amino)-5-(cyclopropylmethoxy)quinazolin-6-yl)-3-(1-methylpyrrolidone-2-yl)acrylamide]", "values": [{"measurement": "GI50", "setting": "[1]", "value": "1 to 5", "unit": "nM"}, {"measurement": "IC50", "setting": "[2]", "value": "< 10", "unit": "nM"}, {"measurement": "IC50", "setting": "[3]", "value": "< 10", "unit": "nM"}]}
{"molecule": "CN1CCC[C@@H]1/C=C/C(=O)Nc1ccc2ncnc(Nc3ccc(OCc4ccccn4)c(Cl)c3)c2c1OC1CCC1", "note": "[Example 39, (R,E)-N-(4-((3-chloro-4-(pyridin-2-ylmethoxy)phenyl)amino)-5-cyclobutoxyquinazolin-6-yl)-3-(1-methylpyrrolidin-2-yl)acrylamide]", "values": [{"measurement": "GI50", "setting": "[1]", "value": "1 to 5", "unit": "nM"}, {"measurement": "IC50", "setting": "[2]", "value": "< 10", "unit": "nM"}, {"measurement": "IC50", "setting": "[3]", "value": "< 10", "unit": "nM"}]}
{"molecule": "CN1CCC[C@@H]1/C=C/C(=O)Nc1ccc2ncnc(Nc3ccc(OCc4ccccn4)c(Cl)c3)c2c1OC1CCOC1", "note": "(stereo partly drawn) [Example 40, (E)-N-(4-((3-chloro-4-(pyridin-2-ylmethoxy)phenyl)amino)-5-((tetrahydrofuran-3-yl)oxy)quinazolin-6-yl)-3-((R)-1-methylpyrrolidin-2-yl)acrylamide]", "values": [{"measurement": "GI50", "setting": "[1]", "value": "1 to 5", "unit": "nM"}, {"measurement": "IC50", "setting": "[2]", "value": "< 10", "unit": "nM"}, {"measurement": "IC50", "setting": "[3]", "value": "< 10", "unit": "nM"}]}
